Data from patent US8415312B2, “Compound which is a nystatin derivative” (Biosergen AS, priority 2007, dated 2013).
≈ marks a conversion by molar mass, not a printed value. Where “and” joins values, the source holds several entries; their conditions need not be identical. Equal entries are not always repeated.

Tests used:
[1] = test system: Candida albicans ATCC 14053; assay: Antifungal susceptibility study (1), broth microdilution MIC; type: cell-based; conditions: lowest concentration preventing any visible growth, read at 48 hours, 35° C., RPMI 1640 pH 7.0
How it was run: (§1)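 Broth microdilution in test medium at pH 7.0 with two-fold compound dilutions (DMSO stocks diluted 50-fold into medium), inoculated with freshly grown yeast cultures. Plates were incubated without agitation at 35° C. for C. albicans or 25° C. for C. humicolus. MIC was taken as the concentration with no visible growth, read at 48 hours.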

[2] = test system: Cryptococcus humicolus ATCC 9949; assay: as above; type: cell-based; conditions: lowest concentration preventing any visible growth, read at 48 hours, 25° C., RPMI 1640 pH 7.0
How it was run: as §1

[3] = test system: Aspergillus niger ATCC 16404; assay: as above; type: cell-based; conditions: lowest concentration preventing any visible growth, read at 48 hours, 35° C., RPMI 1640 pH 7.0
How it was run: (§2)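 Broth microdilution was run at pH 7.0 with compounds diluted from DMSO solutions and mixed 1:1 with conidial inoculum. Spore suspensions were adjusted to OD530 0.09-0.11 for A. niger or 0.15-0.17 for F. oxysporum, then diluted 1:50. Plates were incubated at 35° C without agitation, and MIC was read at 48 hours as absence of visible growth.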

[4] = test system: Fusarium oxysporum VKM F-140; assay: as above; type: cell-based; conditions: lowest concentration preventing any visible growth, read at 48 hours, 35° C., RPMI 1640 pH 7.0
How it was run: as §2

[5] = test system: human blood erythrocytes; assay: In vitro toxicity study, haemolysis (Table 10); type: cell-based; conditions: for Haemolysis of human blood erythrocytes: individual blood samples # 1-3
[6] = test system: Candida albicans ATCC 10231; assay: Antifungal susceptibility study (2), MIC50 by OD490 growth; type: cell-based; conditions: 50% growth inhibition from regression curve, M19 medium without NaCl, 30° C.
Protocol: The anti-fungal activity of several of the nystatin derivatives was further investigated. […] The anti-fungal activity of a number of the nystatin derivatives was therefore determined in a method which is designed to be more sensitive.
The test organism used for the further testing of polyene macrolide bioactivity was Candida albicans ATCC 10231, grown in 120 μl of standard M19 medium without NaCl (with an inoculum of 1000 cfu per well) and 30 μl of diluted polyene macrolide samples. The antibiotics were diluted in MeOH in series ensuring a spectrum of concentrations which yielded results ranging from complete growth inhibition to no inhibition of the test organism. The test organism cultures with antibiotic dilutions were incubated in 96-well microtiter plates at 30° C. without shaking, and growth was measured as OD490 after 12, 14 and 16 hours on a SpectraMax Plus microtiter plate reader. OD was plotted against antibiotic concentration, and MIC50 was estimated from the regression curve at 50% growth inhibition.

[7] = test system: mice (C57B1/6xDBA/2)F1 B6D2F1; conditions: single injection into tail vein, probit analysis
Protocol: (§3) Male mice of hybrids of first generation (C57B1/6xDBA/2)F1 B6D2F1, weight 20-22 g., received from the Central farm. “Kryukovo” of Russian Academies of Medical Science (RAMS) were used. Animals were maintained in a vivarium in plastic cages (with hardwood bedding in environmentally controlled conditions: 24±1° C., 12/12 hours light/dark cycle) on a standard diet of bricketed forages with easy access to drinking water (ad libitum). After a 2-week quarantine period, healthy animals were used in experimental work.
(§4) The solutions were prepared as follows: dry antibiotic substances (5 mg) were mixed with dry sodium deoxycholate (4.1 mg) in a sterile glass vial. 10 mL of phosphate buffer (NaH2PO4—1.59 g; Na2HPO4—0.96 g; H2O—to 100 mL) was added to the mix and the suspension was immediately subjected to vigorous shaking for 10 minutes until homogeneous suspensions were formed.
Preparations of amphotericin B and S44HP were also prepared in the same way.
The antibiotic preparations were singly injected into the mice's tail vein within 1-1.5 hours after the preparation of solutions. […] Each antibiotic was used in a range of doses resulting in 0% to 100% lethality and a minimum of 3 intermediate doses. Animals were randomized into groups, each containing 6 mice.

[8] = test system: Candida albicans (strain 14053 ATCC); assay: In vivo antifungal activity, kidney burden in infected mice; conditions: colonies per 1 g of kidney tissue, day 5, individual mice
Protocol: as §3, §4
Animals were infected intravenously with Candida albicans culture at a dose of 1.0 million CFU/mouse (volume 0.1 mL). 30 minutes after infection, the antifungal agents were introduced intravenously into the mice at various doses in a volume of 0.2 mL (at a rate of 0.2 mL/30 second). Each dose was administered daily for four days including the day of infection (0, 1, 2 and 3 days).
As a control, there was a group of untreated mice (infected in the same way with Candida albicans). Also there was a “placebo” group of non-infected animals which were intravenously administered (in the same volume as antifungal agent preparations) 0.2 mL of solvent (phosphatic buffer +5% glucose (1:1)).
On the 5th day of experiment, mice were weighed and euthanized (killed) by a cervical dislocation. Then, in sterile conditions, the Candida albicans burden of each mouse was determined by counting of viable homogenates from the kidneys. The kidneys were removed aseptically and weighed, then pounded in porcelain mortars with sterile corundum. Dilutions of the resulting suspensions were prepared and sowed on Petri dishes with agar Saburo, incubated for 24 hours at a temperature of 35° C. Developed colonies of Candida albicans were then counted and their quantity calculated on the basis of 1 g of kidney tissue.

[9] = test system: yeasts and filamentous fungi (moulds); assay: Antifungal susceptibility study (1), overall comparison across the test organisms; type: cell-based; conditions: Table 5 MICs
Protocol: The organisms used for susceptibility testing were: Candida albicans ATCC 14053, Cryptococcus humicolus ATCC 9949, Aspergillus niger ATCC 16404 and Fusarium oxysporum VKM F-140 (=CMI, IMI 90473). Organisms were stored on potato dextrose agar […] 50% glycerol solution at -70° C. For short-term storage, stock cultures were stored on agar […] 4° C. The cultures of yeasts were sub-cultured onto Sabouraud dextrose (SAB) agar and incubated for 24 hours at 35° C. (Candida albicans) or for 48 hours at 25° C. (Cryptococcus humicolus) to obtain a freshly grown pure culture. The cultures of moulds were sub-cultured onto potato dextrose agar and incubated for 7 days at 35° C. […] (Fusarium oxysporum) to ensure maximum sporulation. Sterile 96-well flat-bottomed microtitration plates were used for testing. 100 μl of diluted inocula were dispensed into each microdilution well containing 100 μl of the double dilutions of compounds. Drug-free and yeast/mould-free controls were included. Microdilution trays were incubated at 35° C. (Candida albicans and moulds) or 25° C. (Cryptococcus humicolus) without agitation and observed for the presence or absence of visible growth. […] Minimal inhibitory concentrations (MICs) were read at 48 hours.

[10] = test system: erythrocytes; assay: In vitro toxicity study, haemolysis (Tables 11 and 12); type: cell-based, horse; conditions: for Haemolysis of erythrocytes, Mean ± SE: 5 μg/mL (Table 11)
Protocol: The toxicity of various nystatin derivatives was tested at 2 and 5 μg/mL and at 25 μM.
Compounds were dissolved in DMSO at 5 mg/mL and 0.1 mL samples with different concentrations were prepared in DMSO. The samples were mixed with 0.9 mL PBS buffer containing 2.5% horse blood (PBS-HB; kept on ice) and incubated at 37° C. for 30 min without agitation.
Cells were pelleted by centrifugation at 5000 rpm for 5 min and haemolysis was evaluated by measuring OD545. 100% haemolysis was defined as the OD545 value obtained from a suspension of 2.5% horse blood in distilled water.

[11] = 5 μg/mL, individual blood samples # 1-3 (Table 11)

| Structure (SMILES) | MIC Candida albicans ATCC 14053 [1] | MIC Cryptococcus humicolus ATCC 9949 [2] | MIC Aspergillus niger ATCC 16404 [3] | MIC Fusarium oxysporum VKM F-140 [4] | Haemolysis of human blood erythrocytes, MEAN ± SE ([5]; 2 μg/mL) | Haemolysis of human blood erythrocytes ([5]; 2 μg/mL) | Haemolysis of human blood erythrocytes, MEAN ± SE ([5]; 5 μg/mL) | Haemolysis of human blood erythrocytes ([5]; 5 μg/mL) | MIC50 [6] | LD50 [7] | MTD [7] | Number of Colonies ([8]; 0.08 mg/kg × 4/24 i.v.) | Number of Colonies ([8]; 0.15 mg/kg × 4/24 i.v.) | Number of Colonies ([8]; 0.3 mg/kg × 4/24 i.v.) | Number of Colonies ([8]; 0.6 mg/kg × 4/24 i.v.) | anti-fungal activity compared with Amphotericin B and S44HP [9] | Haemolysis of erythrocytes, Mean ± SE [10] | Haemolysis of erythrocytes [10, 11] | Haemolysis of erythrocytes, Mean ± S.E.M. ([10]; 25 μM (Table 12)) | Haemolysis of erythrocytes ([10]; 25 μM, individual blood samples (Table 12)) |
| --- | --- | --- | --- | --- | --- | --- | --- | --- | --- | --- | --- | --- | --- | --- | --- | --- | --- | --- | --- | --- |
| CC1C=CC=CC=CC=CC=CC=CC=CC(OC2OC(C)C(O)C(N)C2O)CC2OC(O)(CC(O)C(O)CCC(O)CC(O)CC(O)CC(=O)OC(C)C(C)C1O)CC(O)C2C(=O)NC1C(O)OC(CO)C(O)C1O (stereo not shown) [Compound 16] | 1 µg/mL (≈ 0.921 µM) | 1 µg/mL (≈ 0.921 µM) | 2 µg/mL (≈ 1.84 µM) | 8 µg/mL (≈ 7.37 µM) | 2.4 ± 0.12% | 2.3% and 2.2% and 2.6% | 3.1 ± 0.14% | 3.1% and 2.9% and 3.4% | – | – | – | – | – | – | – | – | – | – | – | – |
| C[C@@H]1[C@H](O)[C@@H](C)/C=C/C=C/C=C/C=C/C=C/C=C/C=C/[C@H](O[C@@H]2O[C@H](C)[C@@H](O)[C@H](N)[C@@H]2O)C[C@@H]2O[C@](O)(C[C@@H](O)[C@H](O)CC[C@@H](O)C[C@@H](O)C[C@@H](O)CC(=O)O[C@H]1C)C[C@H](O)[C@H]2C(=O)O [Compound S44HP, reference compound] | 1 µg/mL (≈ 1.08 µM) | 1 µg/mL (≈ 1.08 µM) | 1 µg/mL (≈ 1.08 µM) | 4 µg/mL (≈ 4.33 µM) | – | – | – | – | 0.12 µg/mL (≈ 0.13 µM) | 2.05 mg/kg | 0.64 mg/kg | 2.7 × 10^4 and 8.0 × 10^4 and 8.2 × 10^4 | 8.0 × 10^3 and 6.4 × 10^3 and 1.6 × 10^4 | 2.7 × 10^3 and 9.4 × 10^3 and 1.3 × 10^4 | 2.5 × 10^3 and 8.8 × 10^3 and 1.2 × 10^3 | – | – | – | – | – |
| COC(=O)C(CO)NC(=O)C1C(O)CC2(O)CC(O)C(O)CCC(O)CC(O)CC(O)CC(=O)OC(C)C(C)C(O)C(C)C=CC=CC=CC=CC=CC=CC=CC(OC3OC(C)C(O)C(N)C3O)CC1O2 (mixture of isomers) [Compound 14] | 1 µg/mL | 1 µg/mL | 2 µg/mL | 4 µg/mL | 2.5 ± 0.07% | 2.7% and 2.5% (2×) | 4.9 ± 0.2% | 4.8% and 4.5% and 5.3% | – | – | – | – | – | – | – | comparable anti-fungal activity to Amphotericin B and S44HP | – | – | – | – |
| CC1C=CC=CC=CC=CC=CC=CC=CC(OC2OC(C)C(O)C(N)C2O)CC2OC(O)(CC(O)C(O)CCC(O)CC(O)CC(O)CC(=O)OC(C)C(C)C1O)CC(O)C2C(=O)NCCCO (stereo not shown) [Compound 12] | 1 µg/mL (≈ 1.02 µM) | 1 µg/mL (≈ 1.02 µM) | 2 µg/mL (≈ 2.04 µM) | 2 µg/mL (≈ 2.04 µM) | – | – | – | – | 0.14 µg/mL (≈ 0.143 µM) | – | – | – | – | – | – | comparable anti-fungal activity to Amphotericin B and S44HP | 4.4 ± 0.3% | 5% and 4.3% and 4.0% | – | – |
| CC1C=CC=CC=CC=CC=CC=CC=CC(OC2OC(C)C(O)C(N(CCCN)CCCN)C2O)CC2OC(O)(CC(O)C(O)CCC(O)CC(O)CC(O)CC(=O)OC(C)C(C)C1O)CC(O)C2C(=O)O (stereo not shown) [Compound 22] | 1 µg/mL (≈ 0.963 µM) | 1 µg/mL (≈ 0.963 µM) | 1 µg/mL (≈ 0.963 µM) | 1 µg/mL (≈ 0.963 µM) | – | – | – | – | 0.07 µg/mL (≈ 0.0674 µM) | – | – | – | – | – | – | comparable anti-fungal activity to Amphotericin B and S44HP | – | – | – | – |
| COC(=O)C(CO)NC(=O)C1C(O)CC2(O)CC(O)C(O)CCC(O)CC(O)CC(O)CC(=O)OC(C)C(C)C(O)C(C)C=CC=CC=CC=CC=CC=CC=CC(OC3OC(C)C(O)C(N)C3O)CC1O2 (stereo not shown) [Compound 13] | 1 µg/mL (≈ 0.975 µM) | 1 µg/mL (≈ 0.975 µM) | 1 µg/mL (≈ 0.975 µM) | 4 µg/mL (≈ 3.9 µM) | 3.7 ± 0.6% | 3.3% and 3.0% and 4.9% | 14.5 ± 0.5% | 15.5% and 14% and 14.2% | – | – | – | – | – | – | – | comparable anti-fungal activity to Amphotericin B and S44HP | – | – | – | – |
| CC1C=CC=CC=CC=CC=CC=CC=CC(OC2OC(C)C(O)C(N)C2O)CC2OC(O)(CC(O)C(O)CCC(O)CC(O)CC(O)CC(=O)OC(C)C(C)C1O)CC(O)C2C(=O)N1CCN(CCO)CC1 (stereo not shown) [Compound 15] | 1 µg/mL (≈ 0.965 µM) | 2 µg/mL (≈ 1.93 µM) | 2 µg/mL (≈ 1.93 µM) | 4 µg/mL (≈ 3.86 µM) | – | – | – | – | 0.20 µg/mL (≈ 0.193 µM) | – | – | – | – | – | – | – | 2.6 ± 0.1% | 2.8% and 2.4% and 2.7% | – | – |
| CC1C=CC=CC=CC=CC=CC=CC=CC(OC2OC(C)C(O)C(N)C2O)CC2OC(O)(CC(O)C(O)CCC(O)CC(O)CC(O)CC(=O)OC(C)C(C)C1O)CC(O)C2C(=O)NCCO (stereo not shown) [Compound 5] | 2 µg/mL (≈ 2.07 µM) | 4 µg/mL (≈ 4.14 µM) | 4 µg/mL (≈ 4.14 µM) | 4 µg/mL (≈ 4.14 µM) | – | – | – | – | – | – | – | – | – | – | – | – | – | – | 1.6 ± 0.2% | 1% and 1.9% and 1.3% and 2% and 1.8% and 2.1% |
